Measured values reported in paper PMC6522510 (Nature Communications, 2019).
Where a name gives a salt, the structure may show the parent alone. Read-outs that look alike come from different tables or passages of the source.

Columns and labels:
Parameters in all cases: species or system AML cell lines (8); Primary HTS, single concentration about 10 uM, Cell Titer Glo viability; log10 luminescence, per cent inhibition relative to cycloheximide control
Conditions in all cases: 72 h, relative to cycloheximide control, log10 luminescence, inhibitor
CHRF288-11 = tested on: CHRF288-11
CMK = tested on: CMK
CMS = tested on: CMS
M07e = tested on: M07e
ML-2 = tested on: ML-2
MOLM-13 = tested on: MOLM-13
MV4-11 = tested on: MV4-11
U937 = tested on: U937

Compound	CHRF288-11 %inh (CHRF288-11; CHRF288-11 %inh, 10 µM)	CMK %inh (CMK; CMK %inh, 10 µM)	CMS %inh (CMS; CMS %inh, 10 µM)	M07e %inh (M07e; M07e %inh, 10 µM)	ML-2 %inh (ML-2; ML-2 %inh, 10 µM)	MOLM-13 %inh (MOLM-13; MOLM-13 %inh, 10 µM)	MV4-11 %inh (MV4-11; MV4-11 %inh, 10 µM)	U937 %inh (U937; U937 %inh, 10 µM)	CHRF288-11 %inh (CHRF288-11)	CMK %inh (CMK)	CMS %inh (CMS)	M07e %inh (M07e)	ML-2 %inh (ML-2)	MOLM-13 %inh (MOLM-13)	MV4-11 %inh (MV4-11)	U937 %inh (U937)
C[C@]12CC[C@@H]3c4ccc(O)cc4CC[C@H]3[C@@H]1CCC2=O [SJ000285760-8, ESTRONE]	3.613%	-1.298%	-1.181%	2.553%	0.7014%	-0.7843%	1.151%	-0.6937%								
C=C(CC)C(=O)c1ccc(OCC(=O)O)c(Cl)c1Cl [SJ000285761-4, ETHACRYNIC ACID]									13.52%	27.12%	-0.1029%	4.659%	6.312%	7.494%	1.71%	4.395%
CCc1cc(C(N)=S)ccn1 [SJ000285764-4, ETHIONAMIDE]									8.533%	-7.383%	-3.091%	0.2673%	0.2945%	-0.3958%	-3.503%	-1.304%
CC(=O)OCC(=O)[C@@]12OC(C)(C)O[C@@H]1C[C@H]1[C@@H]3C[C@H](F)C4=CC(=O)C=C[C@]4(C)[C@@]3(F)[C@@H](O)C[C@@]12C [SJ000285768-4, FLUOCINONIDE]									0.7625%	3.895%	8.496%	4.323%	0.7594%	6.203%	1.473%	4.65%
Cc1ccc(C)c(OCCCC(C)(C)C(=O)O)c1 [SJ000285775-4, GEMFIBROZIL]	-1.527%	2.032%	6.72%	3.732%	-0.7985%	2.26%	1.327%	-0.006863%								
Cc1ccc(C)c(OCCCC(C)(C)C(=O)O)c1 [SJ000285775-5, GEMFIBROZIL]	15.66%	52.47%	12.02%	4.331%	5.256%	7.787%	21.39%	12.09%								
N=C(N)NCCN1CCCCCCC1 [SJ000285779-4, GUANETHIDINE SULFATE]									-6.834%	-2.691%	-3.451%	0.2704%	1.503%	-0.2658%	-2.801%	-2.581%
NS(=O)(=O)c1cc2c(cc1Cl)NCNS2(=O)=O [SJ000285785-7, HYDROCHLOROTHIAZIDE]									2.834%	2.395%	1.584%	-2.196%	4.295%	5.809%	1.232%	-0.1321%
CCCCCC(=O)O[C@]1(C(C)=O)CC[C@H]2[C@@H]3CCC4=CC(=O)CC[C@]4(C)[C@H]3CC[C@@]21C [SJ000285789-3, HYDROXYPROGESTERONE CAPROATE]									-3.09%	2.985%	-0.655%	0.1043%	-1.962%	1.659%	-1.131%	3.003%
CC(=O)Nc1nnc(S(N)(=O)=O)s1 [SJ000285803-7, ACETAZOLAMIDE]									0.8463%	2.601%	0.5025%	-1.461%	-2.151%	3.554%	1.807%	-0.874%
Oc1ncnc2[nH]ncc12 [SJ000285807-6, ALLOPURINOL]									0.3228%	-2.837%	-3.837%	-3.01%	-1.752%	-2.79%	-0.8311%	0.524%
COc1ccc(C(Cl)=C(c2ccc(OC)cc2)c2ccc(OC)cc2)cc1 [SJ000285822-4, CHLOROTRIANISENE]									-2.199%	7.136%	1.562%	9.609%	4.119%	5.231%	5.688%	7.913%
NC(N)=Nc1nc(CSCC/C(N)=N/S(N)(=O)=O)cs1 [SJ000285829-7, FAMOTIDINE]									-4.142%	0.6614%	0.7839%	1.389%	2.616%	1.07%	-0.5719%	7.705%
CCc1cccc2c3c([nH]c12)C(CC)(CC(=O)O)OCC3 (centres unmarked) [SJ000285831-7, ETODOLAC]									-0.814%	4.628%	0.03623%	4.534%	1.517%	1.754%	1.346%	-0.08316%
Nc1ccc(S(=O)(=O)Nc2ccccn2)cc1 [SJ000285852-4, SULFAPYRIDINE]	-1.153%	-3.962%	2.156%	-0.2217%	1.702%	-2.284%	0.2362%	2.235%								
Nc1ccc(S(=O)(=O)Nc2ccccn2)cc1 [SJ000285852-5, SULFAPYRIDINE]	1.364%	-1.27%	2.339%	0.899%	-1.492%	1.863%	1.788%	0.04414%								
CC(C(=O)O)c1ccc(C(=O)c2cccs2)cc1 (centres unmarked) [SJ000285866-4, SUPROFEN]									0.5358%	0.7662%	-1.053%	-0.1194%	4.32%	1.517%	-0.1438%	0.9376%
Cc1ccc(S(=O)(=O)NC(=O)NN2CCCCCC2)cc1 [SJ000285887-7, TOLAZAMIDE]									90.56%	-1.031%	0.4752%	4.47%	-1.198%	0.3359%	0.7665%	-0.04508%
NCCCC[C@H](N[C@@H](CCc1ccccc1)C(=O)O)C(=O)N1CCC[C@H]1C(=O)O [SJ000285890-4, LISINOPRIL]	-6.515%	2.277%	-0.4714%	-2.951%	-0.08728%	-2.286%	2.293%	5.753%								
NCCCC[C@H](N[C@@H](CCc1ccccc1)C(=O)O)C(=O)N1CCC[C@H]1C(=O)O [SJ000285890-5, LISINOPRIL]	0.1312%	-4.631%	-0.7769%	-0.6293%	2.151%	-1.932%	1.898%	0.1781%								
CCCCNc1cc(C(=O)O)cc(S(N)(=O)=O)c1Oc1ccccc1 [SJ000285893-7, BUMETANIDE]	-2.258%	-6.073%	2.865%	-2.011%	-1.959%	-2.419%	-2.25%	1.768%								
CCCCNc1cc(C(=O)O)cc(S(N)(=O)=O)c1Oc1ccccc1 [SJ000285893-8, BUMETANIDE]	-1.756%	-0.903%	2.258%	45.31%	-0.3091%	2.916%	2.839%	0.292%								
